Laboratory results as given in patent US9040695B2, “Acid addition salts of risperidone and pharmaceutical compositions thereof” (TORRENT PHARMACEUTICALS LIMITED, priority 2011, dated 2015).

Key:
[1] = Intrinsic dissolution rate (disc method, HPLC analysis); assay type: physicochemical; conditions: phosphate buffer saline, 37° C., 200 rpm; for Intrinsic dissolution rate: 50 mg disc, drug equivalent to risperidone dissolved per unit area per unit time
Description: The risperidone hemipamoate of example-1 has intrinsic dissolution rates much less than that compared to risperidone alone as disclosed herein below. The intrinsic dissolution rates were determined by preparing discs of sample (50 mg) and performing dissolution by mounting the sample on shaft of dissolution apparatus with help of disc adaptor. The dissolution was performed in phosphate buffer saline, at 37° C. and rotation of 200 rpm. Samples were withdrawn at regular interval and analyzed by high performance liquid chromatography. The intrinsic dissolution rate was calculated as amount of drug (equivalent to risperidone) dissolved per unit area per unit time.

[2] = pK study in Wistar rats, aqueous suspensions by intramuscular route; assay type: in vivo, male wistar rats; conditions: single IM dose, 3.6 mg equivalent risperidone base, aqueous suspension, figure-3
Description: A comparative evaluation of pharmacokinetic profile of Risperidone, Rispridone pamoate and Risperidone hemipamoate was carried out in male wistar rats. Aqueous suspension formulations of Risperidone base, Pamoate and hemipamoate salt containing 3.6 mg equivalent risperidone base were administered through intramuscular route. Each group (N=5) was administered a single dose. Blood samples were withdrawn at predefined time interval for measurement of Risperidone and 9-hydroxyrisperidone.

[3] = poorly soluble salt suspended in aqueous vehicle, dogs; cited from earlier work

Row | Compound | Intrinsic dissolution rate compared to risperidone alone [1] | Intrinsic dissolution rate [1] [mg/cm^2/h] | Absorption after IM administration [2] | Exposure duration compared to risperidone pamoate [2] | Plasma level course [2] | Period of effectiveness [3]
1 | Cc1nc2n(c(=O)c1CCN1CCC(c3noc4cc(F)ccc34)CC1)CCCC2.Cc1nc2n(c(=O)c1CCN1CCC(c3noc4cc(F)ccc34)CC1)CCCC2.O=C(O)c1cc2ccccc2c(Cc2c(O)c(C(=O)O)cc3ccccc23)c1O [Risperidone hemipamoate] | much less | 0.49 | absorbed rapidly | remains sustained for longer duration | sustains for long duration comparatively | 
2 | Cc1nc2n(c(=O)c1CCN1CCC(c3noc4cc(F)ccc34)CC1)CCCC2 [Risperidone pamoate, reference compound] |  |  | absorbed rapidly |  | falls quickly | over 2 week
3 | Cc1nc2n(c(=O)c1CCN1CCC(c3noc4cc(F)ccc34)CC1)CCCC2 [Risperidone, 3-[2-[4-(6-fluoro-1,2-benzisoxazol-3-yl)-1-piperidinyl]ethyl]-6,7,8,9-tetrahydro-2-methyl-4H-pyrido[1,2-a]pyrimidin-4-one] |  | 1.89 |  |  |  | 
